Earlier results, collected in patent US20040131544A1, “In vivo imaging” (priority 1999, published 2004).

Settings: background statement; Doze, et al., Nuclear Medicine and Biology 27:315-319 (2000)

CC(C)NCC(O)COc1cccc2[nH]c3ccccc3c12 (stereo not shown) [carazolol]
adverse properties (mutagenicity / toxicity): not toxic
